{
  "source": "ChEMBL document CHEMBL1201861",
  "about": "“Genomics of Drug Sensitity in Cancer screening data, Wellcome Trust Sanger Institute”",
  "experiment_in_all_cases": "cells",
  "key": {"[1]": {"test_system": "NCI-H1838", "assay_type": "functional, cell-based, Homo sapiens", "conditions": "Homo sapiens, NCI-H1838", "description": "SANGER: Inhibition of human NCI-H1838 cell growth in a cell viability assay."}, "[2]": {"test_system": "P30-OHK", "assay_type": "functional, cell-based, Homo sapiens", "conditions": "Homo sapiens, P30-OHK", "description": "SANGER: Inhibition of human P30-OHK cell growth in a cell viability assay."}, "[3]": {"test_system": "GAK", "assay_type": "functional, cell-based, Homo sapiens", "conditions": "Homo sapiens, GAK", "description": "SANGER: Inhibition of human GAK cell growth in a cell viability assay."}, "[4]": {"test_system": "EKVX", "assay_type": "functional, cell-based, Homo sapiens", "conditions": "Homo sapiens, EKVX", "description": "SANGER: Inhibition of human EKVX cell growth in a cell viability assay."}, "[5]": {"test_system": "U-87 MG", "assay_type": "functional, cell-based, Homo sapiens, U-87MG ATCC", "conditions": "Homo sapiens, U-87 MG", "description": "SANGER: Inhibition of human U-87-MG cell growth in a cell viability assay."}, "[6]": {"test_system": "SW982", "assay_type": "functional, cell-based, Homo sapiens", "conditions": "Homo sapiens, SW982", "description": "SANGER: Inhibition of human SW982 cell growth in a cell viability assay."}, "[7]": {"test_system": "ES5", "assay_type": "functional, cell-based, Homo sapiens", "conditions": "Homo sapiens, ES5", "description": "SANGER: Inhibition of human ES5 cell growth in a cell viability assay."}, "[8]": {"test_system": "NB69", "assay_type": "functional, cell-based, Homo sapiens", "conditions": "Homo sapiens, NB69", "description": "SANGER: Inhibition of human NB69 cell growth in a cell viability assay."}, "[9]": {"test_system": "TE-5", "assay_type": "functional, cell-based, Homo sapiens", "conditions": "Homo sapiens, TE-5", "description": "SANGER: Inhibition of human TE-5 cell growth in a cell viability assay."}, "[10]": {"test_system": "MFM-223", "assay_type": "functional, cell-based, Homo sapiens", "conditions": "Homo sapiens, MFM-223", "description": "SANGER: Inhibition of human MFM-223 cell growth in a cell viability assay."}, "[11]": {"test_system": "A4-Fuk", "assay_type": "functional, cell-based, Homo sapiens", "conditions": "Homo sapiens, A4-Fuk", "description": "SANGER: Inhibition of human A4-Fuk cell growth in a cell viability assay."}, "[12]": {"test_system": "MEG-01", "assay_type": "functional, cell-based, Homo sapiens", "conditions": "Homo sapiens, MEG-01", "description": "SANGER: Inhibition of human MEG-01 cell growth in a cell viability assay."}, "[13]": {"test_system": "SNB-75", "assay_type": "functional, cell-based, Homo sapiens", "conditions": "Homo sapiens, SNB-75", "description": "SANGER: Inhibition of human SNB75 cell growth in a cell viability assay."}, "[14]": {"test_system": "MOLT-4", "assay_type": "functional, cell-based, Homo sapiens", "conditions": "Homo sapiens, MOLT-4", "description": "SANGER: Inhibition of human MOLT-4 cell growth in a cell viability assay."}, "[15]": {"test_system": "HL-60", "assay_type": "functional, cell-based, Homo sapiens", "conditions": "Homo sapiens, HL-60", "description": "SANGER: Inhibition of human HL-60 cell growth in a cell viability assay."}, "[16]": {"test_system": "ES7", "assay_type": "functional, cell-based, Homo sapiens", "conditions": "Homo sapiens, ES7", "description": "SANGER: Inhibition of human ES7 cell growth in a cell viability assay."}, "[17]": {"test_system": "NKM-1", "assay_type": "functional, cell-based, Homo sapiens", "conditions": "Homo sapiens, NKM-1", "description": "SANGER: Inhibition of human NKM-1 cell growth in a cell viability assay."}, "[18]": {"test_system": "BV-173", "assay_type": "functional, cell-based, Homo sapiens", "conditions": "Homo sapiens, BV-173", "description": "SANGER: Inhibition of human BV-173 cell growth in a cell viability assay."}, "[19]": {"test_system": "Mo", "assay_type": "functional, cell-based, Homo sapiens", "conditions": "Homo sapiens, Mo", "description": "SANGER: Inhibition of human Mo-T cell growth in a cell viability assay."}, "[20]": {"test_system": "SCC-15", "assay_type": "functional, cell-based, Homo sapiens", "conditions": "Homo sapiens, SCC-15", "description": "SANGER: Inhibition of human SCC-15 cell growth in a cell viability assay."}, "[21]": {"test_system": "MHH-PREB-1", "assay_type": "functional, cell-based, Homo sapiens", "conditions": "Homo sapiens, MHH-PREB-1", "description": "SANGER: Inhibition of human MHH-PREB-1 cell growth in a cell viability assay."}, "[22]": {"test_system": "HC-1", "assay_type": "functional, cell-based, Homo sapiens", "conditions": "Homo sapiens, HC-1", "description": "SANGER: Inhibition of human HC-1 cell growth in a cell viability assay."}, "[23]": {"test_system": "TE-8", "assay_type": "functional, cell-based, Homo sapiens", "conditions": "Homo sapiens, TE-8", "description": "SANGER: Inhibition of human TE-8 cell growth in a cell viability assay."}, "[24]": {"test_system": "SH-4", "assay_type": "functional, cell-based, Homo sapiens", "conditions": "Homo sapiens, SH-4", "description": "SANGER: Inhibition of human SH-4 cell growth in a cell viability assay."}, "[25]": {"test_system": "8-MG-BA", "assay_type": "functional, cell-based, Homo sapiens", "conditions": "Homo sapiens, 8-MG-BA", "description": "SANGER: Inhibition of human 8-MG-BA cell growth in a cell viability assay."}, "[26]": {"test_system": "LB771-HNC", "assay_type": "functional, cell-based, Homo sapiens", "conditions": "Homo sapiens, LB771-HNC", "description": "SANGER: Inhibition of human LB771-HNC cell growth in a cell viability assay."}, "[27]": {"test_system": "SF-268", "assay_type": "functional, cell-based, Homo sapiens", "conditions": "Homo sapiens, SF-268", "description": "SANGER: Inhibition of human SF268 cell growth in a cell viability assay."}, "[28]": {"test_system": "L-363", "assay_type": "functional, cell-based, Homo sapiens", "conditions": "Homo sapiens, L-363", "description": "SANGER: Inhibition of human L-363 cell growth in a cell viability assay."}, "[29]": {"test_system": "D-392MG", "assay_type": "functional, cell-based, Homo sapiens", "conditions": "Homo sapiens, D-392MG"}, "[30]": {"test_system": "LB831-BLC", "assay_type": "functional, cell-based, Homo sapiens", "conditions": "Homo sapiens, LB831-BLC", "description": "SANGER: Inhibition of human LB831-BLC cell growth in a cell viability assay."}, "[31]": {"test_system": "LS-1034", "assay_type": "functional, cell-based, Homo sapiens", "conditions": "Homo sapiens, LS-1034", "description": "SANGER: Inhibition of human LS-1034 cell growth in a cell viability assay."}, "[32]": {"test_system": "DJM-1", "assay_type": "functional, cell-based, Homo sapiens", "conditions": "Homo sapiens, DJM-1", "description": "SANGER: Inhibition of human DJM-1 cell growth in a cell viability assay."}, "[33]": {"test_system": "697", "assay_type": "functional, cell-based, Homo sapiens", "conditions": "Homo sapiens", "description": "SANGER: Inhibition of human 697 cell growth in a cell viability assay."}, "[34]": {"test_system": "ES4", "assay_type": "functional, cell-based, Homo sapiens", "conditions": "Homo sapiens, ES4", "description": "SANGER: Inhibition of human ES4 cell growth in a cell viability assay."}, "[35]": {"test_system": "ETK-1", "assay_type": "functional, cell-based, Homo sapiens", "conditions": "Homo sapiens, ETK-1", "description": "SANGER: Inhibition of human ETK-1 cell growth in a cell viability assay."}, "[36]": {"test_system": "HAL-01", "assay_type": "functional, cell-based, Homo sapiens", "conditions": "Homo sapiens, HAL-01", "description": "SANGER: Inhibition of human HAL-01 cell growth in a cell viability assay."}, "[37]": {"test_system": "HD-MY-Z", "assay_type": "functional, cell-based, Homo sapiens", "conditions": "Homo sapiens, HD-MY-Z", "description": "SANGER: Inhibition of human HD-MY-Z cell growth in a cell viability assay."}, "[38]": {"test_system": "NOS-1", "assay_type": "functional, cell-based, Homo sapiens", "conditions": "Homo sapiens, NOS-1", "description": "SANGER: Inhibition of human NOS-1 cell growth in a cell viability assay."}, "[39]": {"test_system": "EW-11", "assay_type": "functional, cell-based, Homo sapiens", "conditions": "Homo sapiens, EW-11", "description": "SANGER: Inhibition of human EW-11 cell growth in a cell viability assay."}, "[40]": {"test_system": "MOLT-16", "assay_type": "functional, cell-based, Homo sapiens", "conditions": "Homo sapiens, MOLT-16", "description": "SANGER: Inhibition of human MOLT-16 cell growth in a cell viability assay."}, "[41]": {"test_system": "LB2241-RCC", "assay_type": "functional, cell-based, Homo sapiens", "conditions": "Homo sapiens, LB2241-RCC", "description": "SANGER: Inhibition of human LB2241-RCC cell growth in a cell viability assay."}},
  "data": [
    {"smiles": "CN(C)C(=N)NC(=N)N", "note": "[METFORMIN]", "values": [
      {"measurement": "IC50", "setting": "[1]", "result": "> 20", "unit": "mM"},
      {"measurement": "IC50", "setting": "[2]", "result": 2.76, "unit": "mM"},
      {"measurement": "IC50", "setting": "[3]", "result": "> 20", "unit": "mM"},
      {"measurement": "IC50", "setting": "[4]", "result": "> 20", "unit": "mM"},
      {"measurement": "IC50", "setting": "[5]", "result": "> 20", "unit": "mM"},
      {"measurement": "IC50", "setting": "[6]", "result": "> 20", "unit": "mM"},
      {"measurement": "IC50", "setting": "[7]", "result": 14.7, "unit": "mM"},
      {"measurement": "IC50", "setting": "[8]", "result": "> 20", "unit": "mM"},
      {"measurement": "IC50", "setting": "[9]", "result": "> 20", "unit": "mM"},
      {"measurement": "IC50", "setting": "[10]", "result": "> 20", "unit": "mM"},
      {"measurement": "IC50", "setting": "[11]", "result": "> 20", "unit": "mM"},
      {"measurement": "IC50", "setting": "[12]", "result": 8.62, "unit": "mM"},
      {"measurement": "IC50", "setting": "[13]", "result": "> 20", "unit": "mM"},
      {"measurement": "IC50", "setting": "[14]", "result": "> 20", "unit": "mM"},
      {"measurement": "IC50", "setting": "[15]", "result": "> 20", "unit": "mM"},
      {"measurement": "IC50", "setting": "[16]", "result": "> 20", "unit": "mM"},
      {"measurement": "IC50", "setting": "[17]", "result": 9.11, "unit": "mM"},
      {"measurement": "IC50", "setting": "[18]", "result": 3.02, "unit": "mM"},
      {"measurement": "IC50", "setting": "[19]", "result": "> 20", "unit": "mM"},
      {"measurement": "IC50", "setting": "[20]", "result": "> 20", "unit": "mM"},
      {"measurement": "IC50", "setting": "[21]", "result": 11.6, "unit": "mM"},
      {"measurement": "IC50", "setting": "[22]", "result": 4.2, "unit": "mM"},
      {"measurement": "IC50", "setting": "[23]", "result": "> 20", "unit": "mM"},
      {"measurement": "IC50", "setting": "[24]", "result": "> 20", "unit": "mM"},
      {"measurement": "IC50", "setting": "[25]", "result": "> 20", "unit": "mM"},
      {"measurement": "IC50", "setting": "[26]", "result": "> 20", "unit": "mM"},
      {"measurement": "IC50", "setting": "[27]", "result": "> 20", "unit": "mM"},
      {"measurement": "IC50", "setting": "[28]", "result": 6.74, "unit": "mM"},
      {"measurement": "IC50", "setting": "[29]", "result": "> 20", "unit": "mM"},
      {"measurement": "IC50", "setting": "[30]", "result": "> 20", "unit": "mM"},
      {"measurement": "IC50", "setting": "[31]", "result": "> 20", "unit": "mM"},
      {"measurement": "IC50", "setting": "[32]", "result": 10.2, "unit": "mM"},
      {"measurement": "IC50", "setting": "[33]", "result": 6.5, "unit": "mM"},
      {"measurement": "IC50", "setting": "[34]", "result": "> 20", "unit": "mM"},
      {"measurement": "IC50", "setting": "[35]", "result": 14.1, "unit": "mM"},
      {"measurement": "IC50", "setting": "[36]", "result": "> 20", "unit": "mM"},
      {"measurement": "IC50", "setting": "[37]", "result": "> 20", "unit": "mM"},
      {"measurement": "IC50", "setting": "[38]", "result": "> 20", "unit": "mM"},
      {"measurement": "IC50", "setting": "[39]", "result": "> 20", "unit": "mM"},
      {"measurement": "IC50", "setting": "[40]", "result": "> 20", "unit": "mM"},
      {"measurement": "IC50", "setting": "[41]", "result": "> 20", "unit": "mM"}
    ]}
  ]
}
